Laboratory results from patent publication US8383581B2, “Short-chain peptides as parathyroid hormone (PTH) receptor agonist” (Cadila Healthcare Limited, priority 2009, dated 2013).
Where a SMILES comes first, the peptide text is derived from it. [ ]: non-standard residue; d: D form. ξ: configuration not given here. ξαMeBip(2'-Et,4'-OMe) = CCc1cc(OC)ccc1-c1ccc(CC(C)(N)C(=O)O)cc1; ξBip(2'-Et-4'-OMe) = CCc1cc(OC)ccc1-c1ccc(CC(N)C(=O)O)cc1; Arg(NO2) = N=C(NCCC[C@H](N)C(=O)O)N[N+](=O)[O-]; ξαMePhe(2,6-F2) = CC(N)(Cc1c(F)cccc1F)C(=O)O; ξαMePhe(2-F) = CC(N)(Cc1ccccc1F)C(=O)O; hhPhe = N[C@@H](CCCc1ccccc1)C(=O)O; hArg = N=C(N)NCCCC[C@H](N)C(=O)O; Cit = NC(=O)NCCC[C@H](N)C(=O)O; ξαMeNle = CCCCC(C)(N)C(=O)O; Nle = CCCC[C@H](N)C(=O)O; Orn = NCCC[C@H](N)C(=O)O; Ac5c = NC1(C(=O)O)CCCC1; Aib = CC(C)(N)C(=O)O

Tests used:
Assay type in all cases: in vitro ADME
[1] = Stability of peptides in human plasma; details: human, plasma; for metabolised at 24 h, 2 μM: pH 7.8
How it was run: (§1)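 Peptides at 2 μM final incubated 0–24 h at 37 °C (50 mM triethanolamine-HCl, pH 7.8) in each matrix, matrix level set to degrade ~50% PTH(1-34) in 1 h; TFA-quenched, C18 HPLC at 206 nm with ESI-MS peak identification; percent degradation from peak areas at each time point.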

[2] = Stability of peptides in simulated gastric fluid (pH 1.5; HCl, NaCl and Pepsin); details: pH 1.5; for % degradation of peptides in 24 h when incubated with simulated gastric fluid: 2 μM
[3] = Stability of peptides in simulated intestinal fluid (pH 7.5); details: pH 7.5; for % degradation of peptides in 24 h when incubated with simulated intestinal fluid: 2 μM
How it was run: as §1

[4] = Stability of peptides in human liver microsomes; details: human, microsomes; for % degradation of peptides in 24 h when incubated with liver microsomes: 2 μM, pH 7.8
How it was run: as §1

Row | Structure (SMILES) | half-life (t1/2) in human plasma [1] | metabolised at 24 h, 2 μM [1] [%] | % degradation of peptides in 24 h when incubated with simulated gastric fluid [2] [%] | half-life ([2]; simulated gi fluid) [h] | half-life ([3]; simulated gi fluid) [h] | % degradation of peptides in 24 h when incubated with simulated intestinal fluid [3] [%] | half-life [4] [h] | % degradation of peptides in 24 h when incubated with liver microsomes [4] [%] | half-life [1] [h] | half-life (t1/2) in liver microsomes [4] | half-life (t1/2) in simulated gastric fluid ([2]; simulated gi fluid) | half-life (t1/2) in simulated intestinal fluid ([3]; simulated gi fluid)
1 | CCCCC(C)(NC(=O)[C@H](CC(C)C)NC(=O)[C@H](CCC(N)=O)NC(=O)[C@@H](NC(=O)[C@H](CCC(=O)O)NC(=O)C(C)(C)NC(=O)[C@@H](NC(=O)C(C)(C)NC(=O)[C@@H](N)C(C)C)C(C)C)[C@@H](C)CC)C(=O)N[C@@H](Cc1c[nH]cn1)C(=O)N[C@@H](CCC(N)=O)C(=O)N[C@@H](CCCCNC(=N)N)C(=O)N[C@@H](C)C(=O)N[C@@H](CCCCNC(=N)N)C(=O)NC(C)(Cc1ccc(-c2ccc(OC)cc2CC)cc1)C(=O)N[C@@H](CCCc1ccccc1)C(N)=O (some centres unmarked) [Seq. ID. 915] (H-V[Aib]V[Aib]EIQL[ξαMeNle]HQ[hArg]A[hArg][ξαMeBip(2'-Et,4'-OMe)][hhPhe]-NH2) | (9) h | 80 | 100 | 0.5 | 0.5 | 100 | 0.5 | 100 | – | – | – | –
2 | CCCC[C@H](NC(=O)C(C)(Cc1c(F)cccc1F)NC(=O)[C@H](CCC(N)=O)NC(=O)[C@@H](NC(=O)[C@H](CCC(=O)O)NC(=O)C(C)(C)NC(=O)[C@@H](NC(=O)C(C)(C)N)C(C)C)[C@@H](C)CC)C(=O)N[C@@H](Cc1c[nH]cn1)C(=O)N[C@@H](CCC(N)=O)C(=O)N[C@@H](CCCN)C(=O)NC(C)(C)C(=O)NC(C)(Cc1c(F)cccc1F)C(=O)NC(Cc1ccc(-c2ccc(OC)cc2CC)cc1)C(=O)N[C@@H](CCCc1ccccc1)C(N)=O (some centres unmarked) [Seq. ID. 840] (H-[Aib]V[Aib]EIQ[ξαMePhe(2,6-F2)][Nle]HQ[Orn][Aib][ξαMePhe(2,6-F2)][ξBip(2'-Et-4'-OMe)][hhPhe]-NH2) | – | 0 | 00 | > 24 | > 24 | 00 | – | 33 | > 24 | (5) h | – | –
3 | CCCC[C@H](NC(=O)C(C)(Cc1c(F)cccc1F)NC(=O)[C@H](CCC(N)=O)NC(=O)[C@@H](NC(=O)[C@H](CCC(=O)O)NC(=O)C(C)(C)NC(=O)[C@@H](NC(=O)C(C)(C)N)C(C)C)[C@@H](C)CC)C(=O)N[C@@H](Cc1c[nH]cn1)C(=O)N[C@@H](CCC(N)=O)C(=O)NC(C)(Cc1c(F)cccc1F)C(=O)N[C@@H](C)C(=O)NC(C)(Cc1c(F)cccc1F)C(=O)NC(Cc1ccc(-c2ccc(OC)cc2CC)cc1)C(=O)N[C@@H](CCCc1ccccc1)C(N)=O (some centres unmarked) [Seq. ID. 880] (H-[Aib]V[Aib]EIQ[ξαMePhe(2,6-F2)][Nle]HQ[ξαMePhe(2,6-F2)]A[ξαMePhe(2,6-F2)][ξBip(2'-Et-4'-OMe)][hhPhe]-NH2) | – | 0 | 00 | > 24 | > 24 | 00 | – | 31 | > 24 | (5) h | – | –
4 | CCCC[C@H](NC(=O)C(C)(Cc1c(F)cccc1F)NC(=O)[C@H](CCC(N)=O)NC(=O)[C@@H](NC(=O)[C@H](CCC(=O)O)NC(=O)C(C)(C)NC(=O)[C@@H](NC(=O)C(C)(C)N)C(C)C)[C@@H](C)CC)C(=O)N[C@@H](Cc1c[nH]cn1)C(=O)N[C@@H](CCC(N)=O)C(=O)NC(C)(Cc1c(F)cccc1F)C(=O)NC(C)(C)C(=O)NC(C)(Cc1c(F)cccc1F)C(=O)NC(C)(Cc1ccccc1F)C(N)=O (some centres unmarked) [Seq. ID. 510] (H-[Aib]V[Aib]EIQ[ξαMePhe(2,6-F2)][Nle]HQ[ξαMePhe(2,6-F2)][Aib][ξαMePhe(2,6-F2)][ξαMePhe(2-F)]-NH2) | – | 0 | 41 | 4 | > 24 | 00 | 2 | 80 | > 24 | – | – | –

Second part, the compound after the results:

Row | half-life (t1/2) in human plasma [1] | metabolised at 24 h, 2 μM [1] [%] | % degradation of peptides in 24 h when incubated with simulated gastric fluid [2] [%] | half-life ([2]; simulated gi fluid) [h] | half-life ([3]; simulated gi fluid) [h] | % degradation of peptides in 24 h when incubated with simulated intestinal fluid [3] [%] | half-life [4] [h] | % degradation of peptides in 24 h when incubated with liver microsomes [4] [%] | half-life [1] [h] | half-life (t1/2) in liver microsomes [4] | half-life (t1/2) in simulated gastric fluid ([2]; simulated gi fluid) | half-life (t1/2) in simulated intestinal fluid ([3]; simulated gi fluid) | Structure (SMILES)
5 | – | 0 | 00 | > 24 | > 24 | 00 | – | 35 | > 24 | (5) h | – | – | CCCC[C@H](NC(=O)C(C)(Cc1c(F)cccc1F)NC(=O)[C@H](CCC(N)=O)NC(=O)[C@@H](NC(=O)[C@H](CCC(=O)O)NC(=O)C(C)(C)NC(=O)[C@@H](NC(=O)C(C)(C)N)C(C)C)[C@@H](C)CC)C(=O)N[C@@H](Cc1c[nH]cn1)C(=O)N[C@@H](CCC(N)=O)C(=O)NC(C)(C)C(=O)NC(C)(C)C(=O)N[C@@H](CCCNC(=N)N[N+](=O)[O-])C(=O)NC(C)(Cc1ccccc1F)C(N)=O (some centres unmarked) [Seq. ID. 590] (H-[Aib]V[Aib]EIQ[ξαMePhe(2,6-F2)][Nle]HQ[Aib][Aib][Arg(NO2)][ξαMePhe(2-F)]-NH2)
6 | – | 78 | 14 | – | – | 43 | 1 | 80 | 8 | – | (8) h | (6) h | CCCC[C@H](NC(=O)C(C)(Cc1c(F)cccc1F)NC(=O)[C@H](CCC(N)=O)NC(=O)[C@@H](NC(=O)[C@H](CCC(=O)O)NC(=O)C(C)(C)NC(=O)[C@@H](NC(=O)C1(N)CCCC1)C(C)C)[C@@H](C)CC)C(=O)N[C@@H](Cc1c[nH]cn1)C(=O)N[C@@H](CCC(N)=O)C(=O)NC(C)(C)C(=O)NC(C)(C)C(=O)NC(C)(C)C(=O)NC(C)(Cc1ccccc1F)C(N)=O (some centres unmarked) [Seq. ID. 560] (H-[Ac5c]V[Aib]EIQ[ξαMePhe(2,6-F2)][Nle]HQ[Aib][Aib][Aib][ξαMePhe(2-F)]-NH2)
7 | – | 0 | 50 | 4 | > 24 | 00 | 2 | 86 | > 24 | – | – | – | CCCC[C@H](NC(=O)C(C)(Cc1ccccc1F)NC(=O)[C@H](CCC(N)=O)NC(=O)[C@@H](NC(=O)[C@H](CCC(=O)O)NC(=O)C(C)(C)NC(=O)[C@@H](NC(=O)C1(N)CCCC1)C(C)C)[C@@H](C)CC)C(=O)N[C@@H](Cc1c[nH]cn1)C(=O)N[C@@H](CCC(N)=O)C(=O)N[C@@H](CCCNC(N)=O)C(=O)NC(C)(C)C(=O)NC(C)(Cc1c(F)cccc1F)C(=O)NC(C)(Cc1ccccc1F)C(N)=O (some centres unmarked) [Seq. ID. 380] (H-[Ac5c]V[Aib]EIQ[ξαMePhe(2-F)][Nle]HQ[Cit][Aib][ξαMePhe(2,6-F2)][ξαMePhe(2-F)]-NH2)
